Measured values reported in the NIST ThermoML archive (doi:10.1021/je800110r).
± gives the expanded uncertainty stated by the source.

Settings: 323.15 K, Liquid, Vibrating tube method

CCCCCCCCCC [decane]
Settings	mass density [kg/m3]
13966 kPa	719 ± 2
13981 kPa	719.1 ± 2
14001 kPa	719 ± 2
14021 kPa	719 ± 2
14043 kPa	719 ± 2
14066 kPa	719.2 ± 2
14084 kPa	719.2 ± 2
14099 kPa	719.1 ± 2
14124 kPa	719.2 ± 2
14140 kPa	719.3 ± 2
14160 kPa	719.2 ± 2
14173 kPa	719.2 ± 2
14274 kPa	719.2 ± 2
14317 kPa	719.3 ± 2
14348 kPa	719.5 ± 2
14364 kPa	719.3 ± 2
14385 kPa	719.4 ± 2
14404 kPa	719.4 ± 2
14424 kPa	719.4 ± 2
14622 kPa	719.6 ± 2
14631 kPa	719.5 ± 2
14647 kPa	719.5 ± 2
14657 kPa	719.7 ± 2
14679 kPa	719.6 ± 2
14688 kPa	719.6 ± 2
14701 kPa	719.6 ± 2
14711 kPa	719.7 ± 2
14725 kPa	719.7 ± 2
14741 kPa	719.6 ± 2
14753 kPa	719.7 ± 2
15015 kPa	719.9 ± 2
15023 kPa	719.9 ± 2
15033 kPa	719.8 ± 2
15047 kPa	720 ± 2
15058 kPa	719.9 ± 2
15068 kPa	719.9 ± 2
15085 kPa	720 ± 2
15095 kPa	719.9 ± 2
15112 kPa	720 ± 2
15120 kPa	719.9 ± 2
15130 kPa	719.9 ± 2
15143 kPa	720.1 ± 2
15159 kPa	720 ± 2
15170 kPa	720 ± 2
15184 kPa	720 ± 2
15196 kPa	720.1 ± 2
15211 kPa	720 ± 2
15222 kPa	720 ± 2
15237 kPa	720 ± 2
15249 kPa	720 ± 2
15266 kPa	720.1 ± 2
15275 kPa	720.1 ± 2
15286 kPa	720 ± 2
15303 kPa	720.2 ± 2
15312 kPa	720.1 ± 2
15326 kPa	720.1 ± 2
15340 kPa	720.2 ± 2
15388 kPa	720.2 ± 2
15397 kPa	720.2 ± 2
15411 kPa	720.2 ± 2
15423 kPa	720.2 ± 2
15686 kPa	720.4 ± 2
15697 kPa	720.5 ± 2
15712 kPa	720.4 ± 2
15721 kPa	720.5 ± 2
16291 kPa	721 ± 2
16333 kPa	721 ± 2
16345 kPa	721.1 ± 2
16357 kPa	720.9 ± 2
16371 kPa	721.1 ± 2
16383 kPa	720.9 ± 2
16398 kPa	721.1 ± 2
16410 kPa	720.9 ± 2
16426 kPa	721.1 ± 2
16436 kPa	721.1 ± 2
16448 kPa	721.1 ± 2
16460 kPa	721.2 ± 2
16473 kPa	721 ± 2
16595 kPa	721.1 ± 2
16627 kPa	721.2 ± 2
16637 kPa	721.2 ± 2
16673 kPa	721.2 ± 2
16691 kPa	721.2 ± 2
16708 kPa	721.1 ± 2
16721 kPa	721.3 ± 2
16735 kPa	721.2 ± 2
16752 kPa	721.2 ± 2
16764 kPa	721.2 ± 2
16784 kPa	721.3 ± 2
16797 kPa	721.3 ± 2
16817 kPa	721.4 ± 2
16829 kPa	721.3 ± 2
16849 kPa	721.4 ± 2
16864 kPa	721.5 ± 2
16876 kPa	721.4 ± 2
16889 kPa	721.3 ± 2
16910 kPa	721.3 ± 2
16921 kPa	721.4 ± 2
16934 kPa	721.4 ± 2
16951 kPa	721.4 ± 2
16964 kPa	721.4 ± 2
16980 kPa	721.5 ± 2
16995 kPa	721.4 ± 2
17043 kPa	721.5 ± 2
17058 kPa	721.4 ± 2
17077 kPa	721.6 ± 2
17095 kPa	721.5 ± 2
17112 kPa	721.4 ± 2
17130 kPa	721.6 ± 2
17141 kPa	721.5 ± 2
17157 kPa	721.6 ± 2
17172 kPa	721.4 ± 2
17190 kPa	721.6 ± 2
17203 kPa	721.6 ± 2
17223 kPa	721.6 ± 2
17241 kPa	721.6 ± 2
17254 kPa	721.7 ± 2
17628 kPa	722 ± 2
18716 kPa	722.8 ± 2
18779 kPa	722.8 ± 2
18862 kPa	722.9 ± 2
18883 kPa	722.8 ± 2
19079 kPa	723 ± 2
19095 kPa	723.2 ± 2
19120 kPa	723 ± 2
19140 kPa	723.1 ± 2
19159 kPa	723.1 ± 2
19176 kPa	723.2 ± 2
19198 kPa	723.2 ± 2
19220 kPa	723.2 ± 2
19240 kPa	723.2 ± 2
19286 kPa	723.3 ± 2
19330 kPa	723.3 ± 2
19527 kPa	723.5 ± 2
19547 kPa	723.4 ± 2
19614 kPa	723.5 ± 2
19699 kPa	723.6 ± 2
